Assay results reported in patent US11679107B2 (Eisai R&D Management Co., Ltd., priority 2018, dated 2023).
Where two headings read alike, the source gives them in different places.

Legend:
[1] = test system: Ad2 variant pre-mRNAs spliced in HeLa S3 nuclear extracts; assay: In vitro splicing assay (IVS), RT-qPCR of spliced product; type: biochemical; details: for IC50: geometric mean; for Ratio Ad2.1/2.2: ratio of IVS IC50 Ad2.1 to Ad2.2
How it was run: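 Ad2 variant pre-mRNA (2 ng) with FTZΔi control RNA in HeLa S3 nuclear extract (8 μg) was pre-incubated with compound or DMSO for 15 min at 30 °C. Splicing ran 90 min at 30 °C after adding 0.5 mM ATP, creatine phosphate and MgCl2. Spliced product was quantified by TaqMan RT-qPCR, normalized to DMSO, and curve-fitted.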

[2] = target: T1, SF3b complexes (Homo sapiens, UniProt O75533+Q7RTV0); assay: Scintillation proximity assay (SPA) with [3H]-labelled pladienolide probe; type: binding; details: SF3B1 (WT); geometric mean; read-out: SPA-ATS GMean IC50 (nM) SF3B1 (WT)
T1 construct: endogenous in cells; host or cells: Nuclear extracts; A HeLa S3 extract preparation is described for the in vitro splicing assay
How it was run: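 SF3b complexes captured from nuclear extracts on anti-SF3B1 antibody SPA beads; test compounds pre-incubated 30 min before 2.5 nM [3H]-pladienolide probe added, then 30 min incubation. Bound probe read by scintillation; values from non-linear regression of concentration–response curves.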

[3] = test system: NCI-H1568 cells (high MCL1); assay: Cell proliferation and viability, CellTiter-Glo, 72 hours; type: cell-based; details: for GI50: geometric mean
How it was run: (§1)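 Cells grown in RPMI-1640 with 10% FBS (Panc 05.04 with added insulin, 15% FBS total) were exposed to an 11-point half-log dilution, typically 10 μM–100 pM, at 0.1% DMSO for 72 h at 37 °C. ATP content was read by CellTiter-Glo luminescence. Percent inhibition was set against a time-zero plate and DMSO vehicle wells, on a −100% (cidal) to 100% (uninhibited growth) scale.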

[4] = test system: Panc 05.04 cells (SF3b K700E mutant); assay: as above; type: cell-based; details: for GI50: geometric mean
How it was run: as §1

[5] = Ad2.1 pre-mRNA substrate, read-out: qPCR-IVS-ATS GMean IC50 (nM) Ad2.1
[6] = Ad2.2 pre-mRNA substrate, read-out: qPCR-IVS-ATS GMean IC50 (nM) Ad2.2
[7] = 72 h, NCIH1568.1, -100% = cidal, 0% = static, 100% = uninhibited growth
[8] = NCI-H1568, read-out: CTGlo-ATS GMean GI50 (nM) 72 h NCIH1568.1, 72 h, NCIH1568.1
[9] = 72 h, PANC0504.1, -100% = cidal, 0% = static, 100% = uninhibited growth
[10] = Panc 05.04, read-out: CTGlo-ATS GMean GI50 (nM) 72 h PANC0504.1, 72 h, PANC0504.1
[11] = NCI-H1568, read-out: CTGlo-ATS GMean GI50 (nM) 72 h NCIH1568.1, NCIH1568.1 cells, 72 h
[12] = NCIH1568.1 cells, 72 h, −100% cidal, 0% static, 100% maximal growth
[13] = PANC0504.1 cells, 72 h, −100% cidal, 0% static, 100% maximal growth
[14] = Panc 05.04, read-out: CTGlo-ATS GMean GI50 (nM) 72 h PANC0504.1, PANC0504.1 cells, 72 h
[15] = NCI-H1568, 72 h, read-out: CTGlo-ATS GMean GI50 (nM) 72 h NCIH1568.1, NCIH1568.1 cells, 72 h
[16] = Panc 05.04, 72 h, read-out: CTGlo-ATS GMean GI50 (nM) 72 h PANC0504.1, PANC0504.1 cells, 72 h

| SMILES | IC50 [1, 5] [nM] | IC50 [1, 6] [nM] | Ratio Ad2.1/2.2 [1] | IC50 [2] [nM] | CTGlo-ATS Mean MinResponse % 72 h NCIH1568.1 [3, 7] [%] | GI50 [3, 8] [nM] | CTGlo-ATS Mean MinResponse % 72 h PANC0504.1 [4, 9] [%] | GI50 [4, 10] [nM] | GI50 [3, 11] [nM] | CTGlo-ATS Mean MinResponse % 72 h NCIH1568.1 [3, 12] [%] | CTGlo-ATS Mean MinResponse % 72 h PANC0504.1 [4, 13] [%] | GI50 [4, 14] [nM] | GI50 [3, 15] [nM] | GI50 [4, 16] [nM] |
| --- | --- | --- | --- | --- | --- | --- | --- | --- | --- | --- | --- | --- | --- | --- |
| CNS(=O)(=O)c1cccc(/C=C(\C)[C@H]2OC(=O)CC(O)CCC(C)[C@@H](OC(=O)N3CCN(C)CC3)/C=C/[C@@H]2C)c1 (stereo in doubt) [Compound 212, [(2S,3S,4E,6R,7R,10S)-10-hydroxy-3,7-dimethyl-2-[(E)-1-[3-(methylsulfamoyl)phenyl]prop-1-en-2-yl]-12-oxo-1-oxacyclododec-4-en-6-yl] 4-methylpiperazine-1-carboxylate] | > 25000 | 93.8 | 266.536 | 8.79 | −49.302 | 129 | −59.089 | 60.2 | – | – | – | – | – | – |
| COCC(=O)N1CCN(c2cc(F)cc(/C=C(\C)[C@H]3OC(=O)C[C@H](O)CC[C@H](C)[C@@H](OC(=O)N4CCN(C)CC4)/C=C/[C@@H]3C)c2)CC1 [Compound 108] | 16.8 | 14.3 | – | 2.03 | – | – | – | – | 2.47 | −79.118 | −82.618 | 3.31 | – | – |
| C/C(=C\c1cc(Cl)cc(Cl)c1)[C@H]1OC(=O)C[C@H](O)CC[C@H](C)[C@@H](OC(=O)N2CCN(C)CC2)/C=C/[C@@H]1C [Compound 48] | > 25000 | 188 | – | 11.3 | – | – | – | – | 121 | −38.837 | −89.415 | 95.2 | – | – |
| C/C(=C\c1cc(F)cc(N2CCN(CCO)C2=O)c1)[C@H]1OC(=O)C[C@H](O)CC[C@H](C)[C@@H](OC(=O)N2CCN(C)CC2)/C=C/[C@@H]1C [Compound 65] | 26.2 | 17.3 | – | 2.83 | – | – | – | – | – | −68.297 | −88.951 | – | 5.88 | 5.74 |
| C/C(=C\c1cccc(S(=O)(=O)N2CCN(C)CC2)c1)[C@H]1OC(=O)C[C@H](O)CC[C@H](C)[C@@H](OC(=O)N2CCN(C)CC2)/C=C/[C@@H]1C [Compound 211, [(2S,3S,4E,6R,7S,10R)-10-hydroxy-3,7-dimethyl-2-[(E)-1-[3-(4-methylpiperazin-1-yl)sulfonylphenyl]prop-1-en-2-yl]-12-oxo-1-oxacyclododec-4-en-6-yl] 4-methylpiperazine-1-carboxylate] | 651 | 83.4 | 7.806 | 11.9 | −52.358 | 60.6 | −91.820 | 47.6 | – | – | – | – | – | – |
| C/C(=C\c1cncc(S(=O)(=O)N2CCCC2)c1)[C@H]1OC(=O)C[C@H](O)CC[C@H](C)[C@@H](OC(=O)N2CCN(C)CC2)/C=C/[C@@H]1C [Compound 205, [(2S,3S,4E,6R,7S,10R)-10-hydroxy-3,7-dimethyl-12-oxo-2-[(E)-1-(5-pyrrolidin-1-ylsulfonylpyridin-3-yl)prop-1-en-2-yl]-1-oxacyclododec-4-en-6-yl] 4-methylpiperazine-1-carboxylate] | > 25000 | 108 | 232.132 | 16.2 | −28.455 | 85.9 | −91.576 | 70.8 | – | – | – | – | – | – |
| C/C(=C\c1cc(F)c2cnn(C)c2c1)[C@H]1OC(=O)C[C@H](O)CC[C@H](C)[C@@H](OC(=O)N2CCN(C)CC2)/C=C/[C@@H]1C [Compound 101] | 1810 | 4.13 | – | 1.1 | – | – | – | – | – | −64.073 | −94.474 | – | 7.68 | 9.78 |
| C/C(=C\c1cccc(S(=O)(=O)N2CCC2)c1)[C@H]1OC(=O)C[C@H](O)CC[C@H](C)[C@@H](OC(=O)N2CCN(C)CC2)/C=C/[C@@H]1C [Compound 198, [(2S,3S,4E,6R,7S,10R)-2-[(E)-1-[3-(azetidin-1-ylsulfonyl)phenyl]prop-1-en-2-yl]-10-hydroxy-3,7-dimethyl-12-oxo-1-oxacyclododec-4-en-6-yl] 4-methylpiperazine-1-carboxylate] | 2390 | 43.2 | 55.224 | 7.82 | −56.095 | 15.5 | −96.773 | 21.7 | – | – | – | – | – | – |
| C/C(=C\c1cc(F)cc(N2CCOCC2)c1)[C@H]1OC(=O)C[C@H](O)CC[C@H](C)[C@@H](OC(=O)N2CC[C@@H](F)C2)/C=C/[C@@H]1C [Compound 247, [(2S,3S,4E,6R,7S,10R)-2-[(E)-1-(3-fluoro-5-morpholin-4-ylphenyl)prop-1-en-2-yl]-10-hydroxy-3,7-dimethyl-12-oxo-1-oxacyclododec-4-en-6-yl] (3R)-3-fluoropyrrolidine-1-carboxylate] | 50.8 | 34.6 | 1.467 | 14.4 | −67.545 | 31.4 | −77.509 | 40.5 | – | – | – | – | – | – |
| C/C(=C\c1cc(F)cc(N2CCN(C(=O)C3CCOC3)CC2)c1)[C@H]1OC(=O)C[C@H](O)CC[C@H](C)[C@@H](OC(=O)N2CCN(C)CC2)/C=C/[C@@H]1C (stereo partly shown) [Compound 143] | 19.2 | 17.2 | – | 3.2 | – | – | – | – | – | −84.803 | −87.719 | – | 1.75 | 3.67 |
| C/C(=C\c1cc(F)cc(N(C)C)c1)[C@H]1OC(=O)C[C@H](O)CC[C@H](C)[C@@H](OC(=O)N2CCN(C)CC2)/C=C/[C@@H]1C [Compound 29] | > 25000 | 90.7 | – | 5.6 | – | – | – | – | 53.8 | −19.404 | −90.429 | 34.7 | – | – |
| CC[C@H](O)[C@@H](C)C(=O)N1CCN(c2cc(F)cc(/C=C(\C)[C@H]3OC(=O)C[C@H](O)CC[C@H](C)[C@@H](OC(=O)N4CCN(C)CC4)/C=C/[C@@H]3C)c2)CC1 [Compound 72] | 35.8 | 14 | – | 4.66 | – | – | – | – | 4.19 | −80.730 | −75.581 | 5.68 | – | – |
| C/C(=C\c1cc(F)cc(N2CCN(S(=O)(=O)C3COC3)CC2)c1)[C@H]1OC(=O)C[C@H](O)CC[C@H](C)[C@@H](OC(=O)N2CCN(C)CC2)/C=C/[C@@H]1C [Compound 125] | 17.6 | 14.9 | – | 5.06 | – | – | – | – | 4.51 | −83.586 | −83.226 | 6.76 | – | – |
| C/C(=C\c1cccc(N(C)C2COC2)c1)[C@H]1OC(=O)C[C@H](O)CC[C@H](C)[C@@H](OC(=O)N2CCN(C)CC2)/C=C/[C@@H]1C [Compound 171] | 18800 | 42.6 | – | 1.51 | – | – | – | – | – | −50.083 | −92.998 | – | 19.6 | 23.6 |
